Results as given in US20200369674A1, “ANTI-PAIN COMPOUND AND PREPARATION METHOD THEREOF” (LUNAN PHARMACEUTICAL GROUP CORPORATION, priority 2017, published 2020).

Columns and labels:
ICR mice [1] = experiment: Xylene-induced mouse ear swelling test (Effect Example 4); format: in vivo; design: key to Inhibition rate (%): Symbol “—” indicates that the data obtained at this dose was not significantly different from the vehicle control group; details: 50 uL xylene two hours after administration
Experimental: (§1) ICR mice, 18-22 g, half of them being male and the other half being female, provided by the Department of Laboratory Animals, Peking University (License No.: SCXK (Beijing) 2016-0010).
ICR mice were randomly grouped, 8 mice per group, half of them being male and the other half being female. Vehicle control group (double-distilled water) and groups for samples to be tested (the compounds and doses thereof were shown in Table 4). All drugs were dissolved in double-distilled water immediately before administration, and given by intragastric administration at predetermined doses. Two hours after administration, 50 uL of xylene was smeared evenly on the inner and outer sides of right ear of mouse. After 30 minutes, the left and right ears of mouse were cut, and circular ear pieces of the same size were punched at the same position on the left and right ears, and weighed. The ear swelling inhibition rate of compound in mice was calculated according to the formula.
Inhibition rate %=(degree of ear swelling in vehicle control group−degree of ear swelling in test group)/degree of ear swelling in vehicle control group×100

ICR mice [2] = experiment: Formalin experiment; format: in vivo; details: Mus musculus, po, 2 h, 2.5% formalin two hours after administration, phase II 10-60 minutes, read-out: Phase II pain inhibition rate (%)
Experimental: as §1
ICR mice, half of them being male and the other half being female, were randomly grouped, 8 mice per group. Vehicle control group (double-distilled water) and groups for samples to be tested were set, in which the compounds and doses thereof were shown in Table 3. All drugs were dissolved in double-distilled water before administration, and given by intragastric administration at predetermined doses. Two hours after administration, the mice were injected with 20 ul of 2.5% formalin solution in the right hind foot, and the time (s) of licking or biting foot was recorded as an index of pain response, in which 0-5 minutes was phase I, 10-60 minutes was phase II, and the total observation time was 60 minutes. The phase II pain inhibition rate of compound in mice was calculated according to the following formula:
Inhibition rate %=(time of licking or biting foot in vehicle control group−time of licking or biting foot in test group)/time of licking or biting foot in vehicle control group×100

ICR mice [3] = experiment: Acetic acid writhing test; format: in vivo; details: Mus musculus, 2 h, 0.6% acetic acid ip two hours after administration, read-out: Inhibition rate (%)
Experimental: as §1
ICR mice, half of them being male and the other half being female, were randomly grouped, 8 mice per group. Vehicle control group (double-distilled water), ibuprofen control group, and groups for samples to be tested (the compounds and doses thereof were shown in Table 2) were set. All drugs were dissolved in double-distilled water before administration, and given by intragastric administration at predetermined doses. Two hours after the administration, the mice were intraperitoneally injected with 0.6% acetic acid solution (10 ml/kg, ip), and the number of times the mice writhed (abdomen depressed, buttock raised, body elongated) was recorded within 5-20 minutes. The inhibition rate % of compound on writhing pain in mice was calculated according to the following formula.
Inhibition rate %=(number of writhing times in vehicle control group−number of writhing times in test group)/number of writhing times in vehicle control group×100

ICR mice [4] = experiment: Hot plate test; format: in vivo; details: Mus musculus, po, latency 2.0 hours after administration, hot plate 55° C., read-out: PTE %
Experimental: as §1
The temperature of hot plate was adjusted to 55° C., and the responses of mouse such as licking hind feet and jumping were used as the observation indexes. The time from the placement of mice on copper plate to the appearance of the above responses was defined as latency time. The latency time was measured for three times 30 minutes before administration, and the average value thereof was used as basic threshold, or baseline latency (BL). The animals with a latency time greater than 15 s and less than 5 s were removed, and the residual mice were randomly grouped, 8 animals per group.
Vehicle control group (double-distilled water) and groups for samples to be tested (the compounds and doses thereof were shown in Table 1) were set. All drugs were dissolved in […] before administration, and given by intragastric administration. The latency time was measured 2.0 hours after administration. Percentage of Pain Threshold Elevated Rate (PTE %) of compound on mice was calculated according to the following formula:
PTE %=(latency time of test group−latency time of vehicle control group)/latency time of vehicle control group×100

CCI rats [5] = experiment: Thermal stimulation paw withdrawal latency (PWL) in CCI rats; format: in vivo, SD rats; details: 100 mg/kg i.g. daily; for PWL: hot plate 50.5° C., cut-off 14s, mean±SEM
Experimental: (§2) SD rats, body weight 180 g-220 g, half of them being male and the other half being female, provided by the Department of Laboratory Animals, Peking University. The rats were raised in a standard environment with temperature of 22±0.5° C. and relative humidity of 55±5%, 12 h/12 h light-dark cycle, and fed with standard feed.
(§3) Rat was anesthetized with pentobarbital sodium (60 mg/kg, i.p.), the right hind limb was surgically shaved, fixed in the prone position, a longitudinal incision was made along the middle of the right hind limb of the rat, the muscle was bluntly separated, the sciatic nerve was exposed, and the sciatic nerve bifurcate proximal end was loosely ligated with 4-0 silk suture for 4 times, with an interval of about 1 mm each time, in which the degree of tightness was suitable when it was observed that the right hind leg was slightly shaken. After ligation, the muscle and skin were sutured in sequence. For the sham-operated group, the sciatic nerve was only exposed, but not ligated. The success of modeling was determined by observing whether the hind limb of the rat's operation side was closed, slightly valgus and often vacated, and by measuring the mechanical stimulation paw withdrawal threshold and the thermal stimulation paw withdrawal latency of the rat.
(§4) Before surgery, the mechanical stimulation paw withdrawal thresholds and the thermal stimulation paw withdrawal latencies in the rats were determined, and the rats were grouped as: sham operation group (sham), vehicle group (double-distilled water, i.g.), DXL-A-22 group (2 mg/kg, i.g.), DXL-A-24 group (1 mg/kg, i.g.), and Gabapentin group (100 mg/kg, i.g.). All compounds and drugs were dissolved in double-distilled water, and given by intragastric administration at 1 mL/100 g. From the first day after surgery, the administration was carried out every day, and the mechanical stimulation paw withdrawal threshold and the thermal stimulation paw withdrawal latency were measured 2 hours after administration.
The thermal stimulation paw withdrawal latency (PWL) was measured by a hot plate method. The measurement was carried out on the days 5, 7 and 14 after operation. The temperature of the hot plate was 50.5° C. Timing started when the rat was placed on the hot plate, and stopped when the shaking and foot licking responses of the rat appeared, and this time was the PWL of the rat. The hot plate cut-off time was 14s, and the percentage of analgesia (i.e., MPE %) was calculated according to formula (3):
MPE %=(PWL of test group−PWL of vehicle group)/(cut-off time−PWL of vehicle group)×100 (3)

CCI rats [6] = experiment: Mechanical stimulation paw withdrawal threshold (MWT) in CCI rats; format: in vivo, SD rats; details: 100 mg/kg i.g. daily; for inhibition rate (absolute %): PTE % vs vehicle; for MWT: mean±SEM; for inhibition rate (relative %): relative to sham minus vehicle
Experimental: as §2, §3, §4
The mechanical stimulation paw withdrawal threshold (MWT) of rats was detected by von Frey electronic pain tester. The measurement was carried out on the days 5, 7 and 14 after operation. The rats were placed in a transparent plexiglass box (whose bottom was a wire mesh with a gap of 1 mm^2) to adapt to the environment for 30 min. After the rats had no exploration action, the von Frey electronic pain tester was used to stimulate the middle position of paw at the operation side of the rat, and the maximum force caused by rat paw withdrawal response (i.e., MWT) was recorded. The inhibition rate of the compound was calculated according to the following formula:
Absolute increase rate (i.e., PTE %): PTE %=(MWT of test group−MWT of vehicle group)/MWT of vehicle group×100 (1)
Relative increase rate: Inhibition rate %=(MWT of test group−MWT of vehicle group)/(MWT of Sham operation group−MWT of vehicle group)×100 (2)

[7] = Day 5 after operation, section 3.2
[8] = Day 5 after operation, section 3.4
[9] = Day 7 after operation, section 3.2
[10] = Day 7 after operation, section 3.4
[11] = Day 14 after operation, section 3.2
[12] = Day 14 after operation, section 3.4
[13] = Day 5 after operation, section 3.1
[14] = Day 5 after operation, section 3.3
[15] = Day 7 after operation, section 3.1
[16] = Day 7 after operation, section 3.3
[17] = Day 14 after operation, section 3.1
[18] = Day 14 after operation, section 3.3

SMILES: Cc1ccc(N2CC[N+]3(CCCC3)CC2)cc1[N+](=O)[O-].[Br-] [DXL-A-30, 8-(4-methyl-3-nitrophenyl)-5,8-diazaspiro[4.5]decan-5-ium bromide]
- Inhibition rate (%) (ICR mice [1]; 4 μmol/kg intragastric): —
- inhibition in vivo at 4 µmol/kg (ICR mice [2]; 4 μmol/kg intragastric): 16.9%
- inhibition in vivo at 4 µmol/kg (ICR mice [3]; 4 μmol/kg intragastric): 41.8%
- change in vivo at 4 µmol/kg (ICR mice [4]; 4 μmol/kg intragastric): 21%

SMILES: Clc1cccc(N2CC[N+]3(CCCC3)CC2)c1 [DXL-A-05, 8-(3-chlorophenyl)-5,8-diazaspiro[4.5]decan-5-ium bromide]
- inhibition in vivo at 3 mg/kg (ICR mice [1]; Mus musculus, po, 2 h, 3 mg/kg intragastric, read-out: Inhibition rate (%)): 30.8%
- inhibition in vivo at 9 mg/kg (ICR mice [2]; 9 mg/kg intragastric): 32.9%
- inhibition in vivo at 3 mg/kg (ICR mice [3]; po, 3 mg/kg intragastric): 22.5%
- change in vivo at 3 mg/kg (ICR mice [4]; 3 mg/kg intragastric): 19.5%

SMILES: NCC1(CC(=O)O)CCCCC1 [Gabapentin, reference compound]
- PWL (CCI rats [5]; [7]): 11.37 ± 0.32**/
- PWL (CCI rats [5]; [8]): 11.37 ± 0.32**/
- MPE(%) (CCI rats [5]; [7]): 59.72%
- MPE(%) (CCI rats [5]; [8]): 54.02%
- PWL (CCI rats [5]; [9]): 11.76 ± 0.34**/
- PWL (CCI rats [5]; [10]): 11.76 ± 0.34**/
- MPE(%) (CCI rats [5]; [9]): 66.16%
- MPE(%) (CCI rats [5]; [10]): 62.48%
- PWL (CCI rats [5]; [11]): 11.88 ± 0.40**/
- PWL (CCI rats [5]; [12]): 11.88 ± 0.40**/
- MPE(%) (CCI rats [5]; [11]): 66.51%
- MPE(%) (CCI rats [5]; [12]): 67.88%
- inhibition rate (absolute %) (CCI rats [6]; [13]): 99.36%
- inhibition rate (absolute %) (CCI rats [6]; [14]): 87.98%
- MWT (CCI rats [6]; [13]): 21.73 ± 0.49**/
- MWT (CCI rats [6]; [14]): 21.73 ± 0.49**/
- inhibition rate (relative %) (CCI rats [6]; [13]): 40.08%
- inhibition rate (relative %) (CCI rats [6]; [14]): 41.04%
- inhibition rate (absolute %) (CCI rats [6]; [15]): 128.67%
- inhibition rate (absolute %) (CCI rats [6]; [16]): 123.00%
- MWT (CCI rats [6]; [15]): 23.37 ± 1.34**/
- MWT (CCI rats [6]; [16]): 23.37 ± 1.34**/
- inhibition rate (relative %) (CCI rats [6]; [15]): 47.56%
- inhibition rate (relative %) (CCI rats [6]; [16]): 49.94%
- inhibition rate (absolute %) (CCI rats [6]; [17]): 101.42%
- inhibition rate (absolute %) (CCI rats [6]; [18]): 83.36%
- MWT (CCI rats [6]; [17]): 21.27 ± 0.82**/
- MWT (CCI rats [6]; [18]): 21.27 ± 0.82**/
- inhibition rate (relative %) (CCI rats [6]; [17]): 38.46%
- inhibition rate (relative %) (CCI rats [6]; [18]): 36.91%

SMILES: CC(C)Cc1ccc(C(C)C(=O)O)cc1 (stereo not drawn) [Ibuprofen table, Ibuprofen, reference compound]
- inhibition in vivo at 200 mg/kg (ICR mice [3]; po, 200 mg/kg intragastric): 49.1%

SMILES: Fc1ccccc1N1CC[N+]2(CCCC2)CC1.[Br-] [DXL-A-18, 8-(2-fluorophenyl)-5,8-diazaspiro[4.5]decan-5-ium bromide]
- Inhibition rate (%) (ICR mice [1]; 1 mg/kg intragastric): —
- inhibition in vivo at 1 mg/kg (ICR mice [2]; 1 mg/kg intragastric): 22%
- inhibition in vivo at 1 mg/kg (ICR mice [3]; po, 1 mg/kg intragastric): 21.7%
